For one data set, the system named is Acinetobacter baumannii. It counts as cell-based.
The subject of the next data set is Staphylococcus aureus. Put plainly: microbe, parasite or virus in culture. It counts as cell-based.
In another data set the test system is Klebsiella pneumoniae. In kind it is cell-based.
The subject of another data set is Escherichia coli. In kind it is cell-based.
The next data set relates to Pseudomonas aeruginosa. It counts as cell-based.
The test system of a further data set is human red blood cells. The note with it: red cells of human.

Values after ≈ are worked out from the molar mass of the structure shown. Where two headings read alike, the source gives them in different places. Where a SMILES comes first, the peptide text is derived from it. Bridges are numbered along the chain shown (N, C = ends). [ ]: non-standard residue; d: D form. NMeR = CN[C@@H](CCCNC(=N)N)C(=O)O

With `CC(C)[C@@H]1NC(=O)[C@@H](NC(=O)[C@H](Cc2c[nH]c3ccccc23)NC(=O)[C@@H](N)CCCNC(=N)N)CSSC[C@@H](C(=O)N[C@@H](Cc2c[nH]c3ccccc23)C(=O)O)NC(=O)[C@H](CCCNC(=N)N)NC(=O)[C@H](CCCNC(=N)N)NC(=O)[C@H](Cc2ccc(O)cc2)NC(=O)[C@H](CCCNC(=N)N)NC(=O)[C@H](C(C)C)NC(=O)[C@H](CCCNC(=N)N)N(C)C(=O)[C@@H](C)NC(=O)[C@H](C(C)C)NC(=O)[C@H](CCCNC(=N)N)NC(=O)[C@H](C)NC(=O)[C@H](Cc2ccc(O)cc2)NC1=O` [1a] (H-RWCVYARV[dA][NMeR]VRYRRCW-OH; disulfide 3-16), the “MIC (μM) ab” value in the data set on Acinetobacter baumannii stood at 0.4 µM (≈ 0.925 µg/mL). In the data set on Staphylococcus aureus, the “MIC (μM) sa” value is 0.8 µM (≈ 1.85 µg/mL). The “MIC (μM) kp” value in the data set with Klebsiella pneumoniae amounted to 0.8 µM (≈ 1.85 µg/mL). In the data set with Escherichia coli, the “MIC90” value stood at 0.4 µM (≈ 0.925 µg/mL) and the “MIC (μM) ec” value was 0.4 µM (≈ 0.925 µg/mL). Besides, in the data set with Pseudomonas aeruginosa, the “MIC (μM) pa” value stood at 0.8 µM (≈ 1.85 µg/mL).
In the case of `CC(C)[C@@H]1NC(=O)[C@@H](NC(=O)[C@H](Cc2c[nH]c3ccccc23)NC(=O)[C@@H](N)CCCNC(=N)N)CSSC[C@@H](C(=O)N[C@@H](Cc2c[nH]c3ccccc23)C(=O)O)NC(=O)[C@H](CCCNC(=N)N)NC(=O)[C@H](CCCNC(=N)N)NC(=O)[C@H](Cc2ccc(O)cc2)NC(=O)[C@H](CCCNC(=N)N)NC(=O)[C@H](C(C)C)NC(=O)[C@H](CCCNC(=N)N)N(C)C(=O)[C@@H](C(C)C)NC(=O)[C@H](C(C)C)NC(=O)[C@H](CCCNC(=N)N)NC(=O)[C@H](C)NC(=O)[C@H](Cc2ccc(O)cc2)NC1=O` [1b] (H-RWCVYARV[dV][NMeR]VRYRRCW-OH; disulfide 3-16), in the data set with Acinetobacter baumannii, the “MIC (μM) ab” value is 0.8 µM (≈ 1.87 µg/mL). For the same compound, in the data set on Staphylococcus aureus, the “MIC (μM) sa” value came out at 0.4 µM (≈ 0.936 µg/mL). In addition, in the data set on Klebsiella pneumoniae, the “MIC (μM) kp” value stood at 0.4 µM (≈ 0.936 µg/mL). Also, in the data set with Escherichia coli, the “MIC90” value was determined as 0.2 µM (≈ 0.468 µg/mL) and the “MIC (μM) ec” value came out at 0.2 µM (≈ 0.468 µg/mL). In addition, in the data set with Pseudomonas aeruginosa, the “MIC (μM) pa” value was 0.8 µM (≈ 1.87 µg/mL).
Turning to `CC(C)[C@H](NC(=O)CNC(=O)[C@H](CCCNC(=N)N)NC(=O)[C@@H](NC(=O)[C@H](CCCNC(=N)N)NC(=O)[C@H](C)NC(=O)[C@H](Cc1ccc(O)cc1)NC(=O)[C@@H](NC(=O)[C@@H](NC(=O)[C@H](Cc1c[nH]c2ccccc12)NC(=O)[C@@H](N)CCCNC(=N)N)[C@@H](C)O)C(C)C)C(C)C)C(=O)N[C@@H](CCCNC(=N)N)C(=O)N[C@@H](Cc1ccc(O)cc1)C(=O)N[C@@H](CCCNC(=N)N)C(=O)N[C@@H](CCCNC(=N)N)C(=O)N[C@H](C(=O)N[C@@H](Cc1c[nH]c2ccccc12)C(=O)O)[C@@H](C)O` [1c] (H-RWTVYARVRGVRYRRTW-OH), the “MIC (μM) ab” value with Acinetobacter baumannii was found to be 3.12 µM (≈ 7.12 µg/mL). The “MIC (μM) sa” value against Staphylococcus aureus stood at 2.4 µM (≈ 5.48 µg/mL). Moreover, the “MIC (μM) kp” value against Klebsiella pneumoniae was determined as 1.6 µM (≈ 3.65 µg/mL). In the data set with Escherichia coli, the “MIC90” value is 2.4 µM (≈ 5.48 µg/mL) and the “MIC (μM) ec” value is 2.4 µM (≈ 5.48 µg/mL). Also, in the data set on Pseudomonas aeruginosa, the “MIC (μM) pa” value was 12.5 µM (≈ 28.5 µg/mL).
For `CC(C)[C@H](NC(=O)[C@H](CCCNC(=N)N)NC(=O)[C@H](C)NC(=O)[C@H](Cc1ccc(O)cc1)NC(=O)[C@@H](NC(=O)[C@@H](NC(=O)[C@H](Cc1c[nH]c2ccccc12)NC(=O)[C@@H](N)CCCNC(=N)N)[C@@H](C)O)C(C)C)C(=O)N[C@@H](C(=O)N(C)[C@@H](CCCNC(=N)N)C(=O)N[C@H](C(=O)N[C@@H](CCCNC(=N)N)C(=O)N[C@@H](Cc1ccc(O)cc1)C(=O)N[C@@H](CCCNC(=N)N)C(=O)N[C@@H](CCCNC(=N)N)C(=O)N[C@H](C(=O)N[C@@H](Cc1c[nH]c2ccccc12)C(=O)O)[C@@H](C)O)C(C)C)C(C)C` [1e] (H-RWTVYARV[dV][NMeR]VRYRRTW-OH), in the data set with Acinetobacter baumannii, the “MIC (μM) ab” value worked out at 0.4 µM (≈ 0.935 µg/mL). In the data set on Staphylococcus aureus, the “MIC (μM) sa” value worked out at 2.6 µM (≈ 6.08 µg/mL). Besides, the “MIC (μM) kp” value against Klebsiella pneumoniae was 1.6 µM (≈ 3.74 µg/mL). In the data set on Escherichia coli, the “MIC90” value stood at 0.6 µM (≈ 1.4 µg/mL) and the “MIC (μM) ec” value is 0.6 µM (≈ 1.4 µg/mL). In the data set with Pseudomonas aeruginosa, the “MIC (μM) pa” value turned out to be 0.8 µM (≈ 1.87 µg/mL).
On to `CC(C)C[C@H](NC(=O)[C@H](CCCNC(=N)N)NC(=O)CNC(=O)CNC(=O)[C@@H](N)CCCNC(=N)N)C(=O)N[C@H]1CSSC[C@@H](C(=O)N[C@H](C(=O)NCC(=O)N[C@@H](CCCNC(=N)N)C(N)=O)C(C)C)NC(=O)[C@H](C(C)C)NC(=O)[C@@H]2CSSC[C@H](NC(=O)[C@H](Cc3ccc(O)cc3)NC1=O)C(=O)N[C@@H](CCCNC(=N)N)C(=O)N[C@H](C)C(=O)N(C)[C@@H](CCCNC(=N)N)C(=O)N[C@@H](Cc1ccccc1)C(=O)N2` [2a] (H-RGGRLCYCR[dA][NMeR]FCVCVGR-NH2; disulfide 6-15, 8-13), for which the “MIC90” value in the data set on Escherichia coli was 0.5 µM (≈ 1.04 µg/mL). The “MHC10 (μM), minimum hemolytic concentration” value (“MHC10 (μM)” for short) in the data set with human red blood cells was 3.12 µM.
Regarding `CC(C)C[C@H](NC(=O)[C@H](CCCNC(=N)N)NC(=O)CNC(=O)CNC(=O)[C@@H](N)CCCNC(=N)N)C(=O)N[C@H]1CSSC[C@@H](C(=O)N[C@H](C(=O)NCC(=O)N[C@@H](CCCNC(=N)N)C(N)=O)C(C)C)NC(=O)[C@H](C(C)C)NC(=O)[C@@H]2CSSC[C@H](NC(=O)[C@H](Cc3ccc(O)cc3)NC1=O)C(=O)N[C@@H](CCCNC(=N)N)C(=O)N[C@H](C(C)C)C(=O)N(C)[C@@H](CCCNC(=N)N)C(=O)N[C@@H](Cc1ccccc1)C(=O)N2` [2b] (H-RGGRLCYCR[dV][NMeR]FCVCVGR-NH2; disulfide 6-15, 8-13), the “MIC90” value with Escherichia coli worked out at 0.4 µM (≈ 0.845 µg/mL). Moreover, the “MHC10 (μM)” value in the data set with human red blood cells worked out at 3.12 µM.
On to `CC(C)C[C@H](NC(=O)[C@H](CCCNC(=N)N)NC(=O)CNC(=O)CNC(=O)[C@@H](N)CCCNC(=N)N)C(=O)N[C@H](C(=O)N[C@@H](Cc1ccc(O)cc1)C(=O)N[C@H](C(=O)N[C@@H](CCCNC(=N)N)C(=O)N[C@@H](C(=O)N(C)[C@@H](CCCNC(=N)N)C(=O)N[C@@H](Cc1ccccc1)C(=O)N[C@H](C(=O)N[C@H](C(=O)N[C@H](C(=O)N[C@H](C(=O)NCC(=O)N[C@@H](CCCNC(=N)N)C(N)=O)C(C)C)[C@@H](C)O)C(C)C)[C@@H](C)O)C(C)C)[C@@H](C)O)[C@@H](C)O` [2e] (H-RGGRLTYTR[dV][NMeR]FTVTVGR-NH2), for which, in the data set with Escherichia coli, the “MIC90” value was found to be 0.3 µM (≈ 0.633 µg/mL). In the data set with human red blood cells, the “MHC10 (μM)” value is 50 µM.
For `CC(C)[C@H](NC(=O)[C@H](CCCNC(=N)N)NC(=O)[C@H](Cc1ccccc1)NC(=O)[C@@H](NC(=O)[C@H](Cc1c[nH]c2ccccc12)NC(=O)[C@H](CCCNC(=N)N)NC(=O)[C@@H](N)CCCNC(=N)N)[C@@H](C)O)C(=O)N[C@H](C(=O)N[C@@H](Cc1ccc(O)cc1)C(=O)N[C@@H](C(=O)N(C)[C@@H](CCCNC(=N)N)C(=O)N[C@@H](Cc1ccccc1)C(=O)N[C@H](C(=O)N[C@@H](Cc1ccc(O)cc1)C(=O)N[C@@H](CCCNC(=N)N)C(=O)N[C@@H](CCCCN)C(=O)N[C@H](C(=O)N[C@@H](CCCNC(=N)N)C(N)=O)[C@@H](C)O)[C@@H](C)O)C(C)C)[C@@H](C)O` [3e] (H-RRWTFRVTY[dV][NMeR]FTYRKTR-NH2), the “MIC90” value against Escherichia coli came out at 1.1 µM (≈ 2.76 µg/mL). Besides, in the data set with human red blood cells, the “MHC10 (μM)” value stood at 50 µM.
`CN[C@H](CC(C)C)C(=O)N[C@H]1C(=O)N[C@@H](CC(N)=O)C(=O)N[C@H]2C(=O)N[C@H]3C(=O)N[C@H](C(=O)N[C@H](C(=O)O)c4cc(O)cc(O)c4-c4cc3ccc4O)[C@H](O)c3ccc(c(Cl)c3)Oc3cc2cc(c3O[C@@H]2O[C@H](CO)[C@@H](O)[C@H](O)[C@H]2O[C@H]2C[C@](C)(N)[C@H](O)[C@H](C)O2)Oc2ccc(cc2Cl)[C@H]1O` [Vancomycin, reference compound]: the MIC in the data set on Staphylococcus aureus (Staphylococcus aureus, read-out: MIC (μM) sa) was 0.6 µM (≈ 0.87 µg/mL).
As for Polymyxin B [reference compound], the “MIC (μM) ab” value against Acinetobacter baumannii (Acinetobacter baumannii, non-resistant, microbroth dilution, n = 5) is 0.8 µM. In addition, in the data set with Klebsiella pneumoniae (Klebsiella pneumoniae, non-resistant, microbroth dilution, n = 5), the “MIC (μM) kp” value turned out to be 3.0 µM. Further, the “MIC (μM) pa” value with Pseudomonas aeruginosa (Pseudomonas aeruginosa, non-resistant, microbroth dilution, n = 5) was 0.8 µM.

Source of the values: article PMC12520178, “Turn-engineering tunes the conformational rigidity of β-hairpin AMPs in achieving membrane selectivity and killing drug-resistant ESKAPE pathogens” (Chemical Science, 2025).
